In ChEMBL document CHEMBL4765362, “Thirty Years of HDAC Inhibitors: 2020 Insight and Hindsight” (J Med Chem, 2020):
Values belong to the compound of their own block, whether it stands above or below them.

How the values were obtained:
[1] = target: T1, Polyamine deacetylase HDAC10 (Homo sapiens, UniProt Q969S8); assay: Inhibition of recombinant human N-terminal FLAG-tagged HDAC10 (2 to 631 residues) expressed in baculovirus infected sf9 cells using p53 (379 to 382 residues) (Arg-His-Lys(Ac)-Lys(Ac)) as substrate by fluorimetric assay
T1 sequence (Q969S8 whole entry): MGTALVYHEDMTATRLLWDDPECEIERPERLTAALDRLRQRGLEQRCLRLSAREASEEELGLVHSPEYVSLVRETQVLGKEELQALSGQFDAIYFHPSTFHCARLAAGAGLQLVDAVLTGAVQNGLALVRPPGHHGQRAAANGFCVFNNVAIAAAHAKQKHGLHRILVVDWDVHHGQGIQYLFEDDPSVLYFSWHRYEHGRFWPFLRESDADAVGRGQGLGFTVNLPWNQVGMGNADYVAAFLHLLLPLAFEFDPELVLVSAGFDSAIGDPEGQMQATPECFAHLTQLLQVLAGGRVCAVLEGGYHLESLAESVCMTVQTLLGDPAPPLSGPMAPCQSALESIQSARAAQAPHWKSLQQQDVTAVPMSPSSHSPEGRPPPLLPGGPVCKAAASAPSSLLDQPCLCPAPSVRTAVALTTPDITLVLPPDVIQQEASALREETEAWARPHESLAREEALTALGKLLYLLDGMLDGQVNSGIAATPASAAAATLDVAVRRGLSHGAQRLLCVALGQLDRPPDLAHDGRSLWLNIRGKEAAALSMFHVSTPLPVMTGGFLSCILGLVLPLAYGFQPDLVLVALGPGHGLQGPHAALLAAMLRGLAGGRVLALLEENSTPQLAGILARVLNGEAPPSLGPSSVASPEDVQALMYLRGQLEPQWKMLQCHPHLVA

Histone deacetylase 8 = target: T2, Histone deacetylase 8 (Homo sapiens, UniProt Q9BY41); assay: Inhibition of recombinant human C-terminal His-tagged HDAC8 expressed in baculovirus infected sf9 cells using p53 (379 to 382 residues) (Arg-His-Lys(Ac)-Lys(Ac)) by fluorimetric assay
T2 sequence (Q9BY41 whole entry): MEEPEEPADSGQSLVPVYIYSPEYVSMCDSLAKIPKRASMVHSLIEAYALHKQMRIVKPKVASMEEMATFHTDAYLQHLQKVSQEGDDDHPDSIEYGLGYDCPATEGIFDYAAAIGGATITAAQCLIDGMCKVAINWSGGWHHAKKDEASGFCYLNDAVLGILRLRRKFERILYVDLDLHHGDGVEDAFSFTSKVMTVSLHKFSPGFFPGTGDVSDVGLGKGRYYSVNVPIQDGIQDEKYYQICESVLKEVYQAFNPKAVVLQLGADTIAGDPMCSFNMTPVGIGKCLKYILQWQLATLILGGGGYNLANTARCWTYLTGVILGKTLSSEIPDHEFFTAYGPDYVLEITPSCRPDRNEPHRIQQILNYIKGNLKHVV

[2] = target: T1, Polyamine deacetylase HDAC10; assay: Inhibition of recombinant human HDAC10 (2 to 631 residues) expressed in baculovirus infected sf9 cells using Fluor-de-lys as substrate preincubated for 15 mins followed by substrate addition and measured after 60 mins by fluorescence method
Histone deacetylase 4 [3] = target: T3, Histone deacetylase 4 (Homo sapiens, UniProt P56524); assay: Inhibition of human HDAC4 expressed in baculovirus infected sf9 cells using Boc-L-Lys-MCA as substrate preincubated for 15 mins followed by substrate addition and measured after 60 mins by fluorescence method
T3 sequence (P56524 whole entry, the tested form may be a part): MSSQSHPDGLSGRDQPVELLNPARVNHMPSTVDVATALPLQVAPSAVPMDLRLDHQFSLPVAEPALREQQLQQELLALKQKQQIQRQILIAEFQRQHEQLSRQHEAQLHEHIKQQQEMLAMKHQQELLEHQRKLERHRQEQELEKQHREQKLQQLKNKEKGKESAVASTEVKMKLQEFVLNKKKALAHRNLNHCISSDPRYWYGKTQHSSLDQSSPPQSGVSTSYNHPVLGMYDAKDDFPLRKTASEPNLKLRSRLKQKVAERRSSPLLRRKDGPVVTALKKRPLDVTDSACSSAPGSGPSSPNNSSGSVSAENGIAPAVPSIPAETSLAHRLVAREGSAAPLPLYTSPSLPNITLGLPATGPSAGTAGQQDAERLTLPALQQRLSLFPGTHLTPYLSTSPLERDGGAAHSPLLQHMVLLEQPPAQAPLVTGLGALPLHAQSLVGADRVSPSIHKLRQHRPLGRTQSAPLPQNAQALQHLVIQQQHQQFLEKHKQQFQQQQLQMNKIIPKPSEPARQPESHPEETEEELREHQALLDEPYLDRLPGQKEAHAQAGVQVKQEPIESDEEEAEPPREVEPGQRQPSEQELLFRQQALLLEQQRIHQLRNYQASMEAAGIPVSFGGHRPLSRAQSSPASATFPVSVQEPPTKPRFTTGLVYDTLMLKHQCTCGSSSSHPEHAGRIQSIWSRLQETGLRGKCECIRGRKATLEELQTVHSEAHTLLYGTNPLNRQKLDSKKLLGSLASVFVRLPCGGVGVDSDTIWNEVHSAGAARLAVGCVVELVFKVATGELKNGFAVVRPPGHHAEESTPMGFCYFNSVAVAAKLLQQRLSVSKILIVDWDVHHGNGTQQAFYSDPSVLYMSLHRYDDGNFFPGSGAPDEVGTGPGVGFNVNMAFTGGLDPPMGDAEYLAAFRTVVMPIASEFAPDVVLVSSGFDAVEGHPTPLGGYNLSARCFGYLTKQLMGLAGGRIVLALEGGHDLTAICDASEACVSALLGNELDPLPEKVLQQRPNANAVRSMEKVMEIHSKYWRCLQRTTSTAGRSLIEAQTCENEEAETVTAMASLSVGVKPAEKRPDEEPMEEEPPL

Histone deacetylase 9 [4] = target: T4, Histone deacetylase 9 (Homo sapiens, UniProt Q9UKV0); assay: Inhibition of C-terminal His-tagged human HDAC9 (604 to 1066 residues) expressed in baculovirus infected sf9 cells using Boc-L-Lys-MCA as substrate preincubated for 15 mins followed by substrate addition and measured after 60 mins by fluorescence method
T4 sequence (Q9UKV0 whole entry, the tested form may be a part): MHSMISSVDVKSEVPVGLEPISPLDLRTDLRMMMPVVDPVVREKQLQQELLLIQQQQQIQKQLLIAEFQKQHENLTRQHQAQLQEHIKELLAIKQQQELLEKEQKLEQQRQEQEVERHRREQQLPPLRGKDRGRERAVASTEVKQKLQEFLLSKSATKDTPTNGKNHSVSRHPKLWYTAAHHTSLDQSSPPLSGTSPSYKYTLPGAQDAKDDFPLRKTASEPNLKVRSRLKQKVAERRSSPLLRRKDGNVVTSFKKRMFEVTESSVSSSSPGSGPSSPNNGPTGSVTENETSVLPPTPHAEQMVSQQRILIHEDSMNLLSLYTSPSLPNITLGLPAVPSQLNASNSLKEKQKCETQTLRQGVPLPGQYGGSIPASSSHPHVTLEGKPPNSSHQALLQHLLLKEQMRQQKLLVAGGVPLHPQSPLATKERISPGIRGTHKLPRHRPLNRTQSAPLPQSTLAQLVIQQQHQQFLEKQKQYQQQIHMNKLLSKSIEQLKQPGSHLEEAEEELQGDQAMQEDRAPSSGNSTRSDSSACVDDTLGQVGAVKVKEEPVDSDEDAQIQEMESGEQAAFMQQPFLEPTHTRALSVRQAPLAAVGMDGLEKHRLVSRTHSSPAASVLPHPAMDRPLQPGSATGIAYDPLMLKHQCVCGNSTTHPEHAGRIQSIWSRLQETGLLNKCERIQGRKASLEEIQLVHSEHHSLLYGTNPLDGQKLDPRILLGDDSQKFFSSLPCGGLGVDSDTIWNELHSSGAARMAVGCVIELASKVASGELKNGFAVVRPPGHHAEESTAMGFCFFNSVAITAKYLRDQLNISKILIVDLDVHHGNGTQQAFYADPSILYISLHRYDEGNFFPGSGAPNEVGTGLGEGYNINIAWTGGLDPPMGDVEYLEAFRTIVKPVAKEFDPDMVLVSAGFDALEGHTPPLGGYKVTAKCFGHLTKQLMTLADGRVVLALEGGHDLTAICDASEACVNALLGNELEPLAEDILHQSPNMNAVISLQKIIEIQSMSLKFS

Histone deacetylase 5 [5] = target: T5, Histone deacetylase 5 (Homo sapiens, UniProt Q9UQL6); assay: Inhibition of human HDAC5 using Boc-L-Lys-MCA as substrate preincubated for 15 mins followed by substrate addition and measured after 60 mins by fluorescence method
T5 sequence (Q9UQL6 whole entry): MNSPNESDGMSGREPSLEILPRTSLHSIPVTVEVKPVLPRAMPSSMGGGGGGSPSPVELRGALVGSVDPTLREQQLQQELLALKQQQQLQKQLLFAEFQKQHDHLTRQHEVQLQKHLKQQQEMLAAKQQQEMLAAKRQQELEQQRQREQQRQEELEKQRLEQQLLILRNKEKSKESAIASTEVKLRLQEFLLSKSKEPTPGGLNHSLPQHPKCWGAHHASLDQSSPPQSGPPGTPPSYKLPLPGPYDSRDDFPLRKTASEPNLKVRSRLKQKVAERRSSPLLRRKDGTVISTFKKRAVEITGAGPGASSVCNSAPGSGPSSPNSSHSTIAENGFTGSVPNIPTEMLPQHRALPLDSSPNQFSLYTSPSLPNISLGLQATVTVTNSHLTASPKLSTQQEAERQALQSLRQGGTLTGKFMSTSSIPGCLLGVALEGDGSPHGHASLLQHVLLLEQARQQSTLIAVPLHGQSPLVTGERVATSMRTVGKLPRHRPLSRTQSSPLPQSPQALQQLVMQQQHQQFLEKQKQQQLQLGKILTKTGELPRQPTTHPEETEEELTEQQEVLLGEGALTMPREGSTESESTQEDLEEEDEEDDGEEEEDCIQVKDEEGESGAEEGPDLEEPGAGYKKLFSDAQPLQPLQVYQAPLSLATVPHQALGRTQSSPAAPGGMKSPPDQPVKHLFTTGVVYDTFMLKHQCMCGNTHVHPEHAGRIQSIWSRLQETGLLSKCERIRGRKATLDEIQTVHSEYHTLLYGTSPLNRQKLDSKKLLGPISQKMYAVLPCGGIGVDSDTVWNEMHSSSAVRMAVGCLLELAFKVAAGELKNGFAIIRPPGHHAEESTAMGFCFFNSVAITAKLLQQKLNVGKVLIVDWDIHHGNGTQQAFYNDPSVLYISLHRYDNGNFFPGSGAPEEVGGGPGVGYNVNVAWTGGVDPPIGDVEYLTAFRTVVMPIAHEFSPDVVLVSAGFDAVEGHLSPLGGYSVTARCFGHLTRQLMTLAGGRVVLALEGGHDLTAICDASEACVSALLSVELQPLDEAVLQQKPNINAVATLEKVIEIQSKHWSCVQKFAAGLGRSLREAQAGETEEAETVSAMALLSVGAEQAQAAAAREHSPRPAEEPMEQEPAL

[6] = Inhibition of LSD1-HDAC1-CoREST (unknown origin) using Boc-(Ac)Lys-AMC as substrate incubated for 20 mins by fluorescence-based assay; design: species or system Homo sapiens
[7] = target: T1, Polyamine deacetylase HDAC10; assay: Inhibition of HDAC10 (unknown origin)
Histone deacetylase 5 [8] = target: T5, Histone deacetylase 5; assay: Inhibition of human HDAC5 expressed in baculovirus infected sf9 cells using (Boc-Lys(trifluoroacetyl)-AMC) as substrate by fluorescence-based assay
Histone deacetylase 9 [9] = target: T4, Histone deacetylase 9; assay: Inhibition of human HDAC9 expressed in baculovirus infected sf9 cells using (Boc-Lys(trifluoroacetyl)-AMC) as substrate by fluorescence-based assay
Histone deacetylase 4 [10] = target: T3, Histone deacetylase 4; assay: Binding affinity to human full length N-terminal GST-tagged HDAC4 by surface plasmon resonance analysis
Histone deacetylase 1 [11] = target: T6, Histone deacetylase 1 (Homo sapiens, UniProt Q13547); assay: Inhibition of HDAC1 (unknown origin) using Ac-Leu-Gly-Lys(Ac)-AMC as substrate measured every 30 secs for 60 mins by fluorescence-based assay
T6 sequence (Q13547 whole entry): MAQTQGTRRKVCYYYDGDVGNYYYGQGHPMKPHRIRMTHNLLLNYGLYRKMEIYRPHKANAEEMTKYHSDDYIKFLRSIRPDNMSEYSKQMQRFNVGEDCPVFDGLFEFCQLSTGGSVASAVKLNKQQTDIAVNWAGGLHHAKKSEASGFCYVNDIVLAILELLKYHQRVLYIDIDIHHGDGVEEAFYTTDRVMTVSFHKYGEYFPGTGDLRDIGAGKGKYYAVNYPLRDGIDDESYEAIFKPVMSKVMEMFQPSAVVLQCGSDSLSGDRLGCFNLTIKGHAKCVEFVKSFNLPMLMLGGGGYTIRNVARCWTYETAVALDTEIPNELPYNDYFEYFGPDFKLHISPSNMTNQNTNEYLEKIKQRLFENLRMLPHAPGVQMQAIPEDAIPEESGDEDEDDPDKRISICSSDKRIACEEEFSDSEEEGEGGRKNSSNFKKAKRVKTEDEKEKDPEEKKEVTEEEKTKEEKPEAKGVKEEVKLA

Histone deacetylase 2 [12] = target: T7, Histone deacetylase 2 (Homo sapiens, UniProt Q92769); assay: Inhibition of human HDAC2 expressed in Sf9 cells using Ac-Leu-Gly-Lys(Ac)-AMC as substrate measured every 30 secs for 60 mins by fluorescence-based assay
T7 sequence (Q92769 whole entry, the tested form may be a part): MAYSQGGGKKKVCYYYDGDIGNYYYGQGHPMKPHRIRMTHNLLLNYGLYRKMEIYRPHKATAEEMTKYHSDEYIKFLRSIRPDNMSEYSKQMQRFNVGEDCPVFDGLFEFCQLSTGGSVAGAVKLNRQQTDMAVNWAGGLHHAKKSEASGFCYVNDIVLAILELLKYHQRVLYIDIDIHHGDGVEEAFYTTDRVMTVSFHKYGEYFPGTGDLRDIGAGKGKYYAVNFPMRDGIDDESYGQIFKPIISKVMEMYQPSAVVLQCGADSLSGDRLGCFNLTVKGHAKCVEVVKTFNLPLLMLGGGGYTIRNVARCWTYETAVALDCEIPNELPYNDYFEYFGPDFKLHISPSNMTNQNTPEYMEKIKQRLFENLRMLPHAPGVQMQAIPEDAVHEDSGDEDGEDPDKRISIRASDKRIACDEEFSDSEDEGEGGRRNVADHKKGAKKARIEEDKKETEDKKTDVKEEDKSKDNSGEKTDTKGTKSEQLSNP

[13] = target: Histone deacetylase 3/Nuclear receptor corepressor 2 (HDAC3/NCoR2) (Homo sapiens, UniProt O15379); assay: Inhibition of human C-terminal His-tagged HDAC3 (1 to 428 residues)/human N-terminal GST-tagged NcoR2 (395 to 489 residues) expressed in sf9 cells using Ac-Leu-Gly-Lys(Ac)-AMC as substrate measured every 30 secs for 60 mins by fluorescence-based assay
Histone deacetylase 1 [14] = target: T6, Histone deacetylase 1; assay: Inhibition of HDAC1 (unknown origin)
Histone deacetylase 3 [15] = target: T8, Histone deacetylase 3 (Homo sapiens, UniProt O15379); assay: Inhibition of HDAC3 (unknown origin)
T8 sequence (O15379 whole entry): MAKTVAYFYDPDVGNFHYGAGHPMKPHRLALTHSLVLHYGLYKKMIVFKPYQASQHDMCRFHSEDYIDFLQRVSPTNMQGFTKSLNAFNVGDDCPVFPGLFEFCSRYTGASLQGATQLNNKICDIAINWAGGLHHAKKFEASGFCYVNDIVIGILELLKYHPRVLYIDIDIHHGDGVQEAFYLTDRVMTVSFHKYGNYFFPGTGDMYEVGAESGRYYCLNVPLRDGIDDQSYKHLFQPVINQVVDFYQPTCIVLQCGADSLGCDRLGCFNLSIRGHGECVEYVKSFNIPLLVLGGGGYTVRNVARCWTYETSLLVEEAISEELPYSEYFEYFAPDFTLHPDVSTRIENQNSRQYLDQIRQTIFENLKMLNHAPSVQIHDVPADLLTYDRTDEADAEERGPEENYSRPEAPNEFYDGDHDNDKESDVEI

Histone deacetylase 2 [16] = target: T7, Histone deacetylase 2; assay: Inhibition of HDAC2 (unknown origin)
[17] = target: T9, Protein deacetylase HDAC6 (Homo sapiens, UniProt Q9UBN7); assay: Inhibition of human HDAC6 using Boc-Lys(Ac)-AMC as substrate preincubated for 30 mins followed by substrate addition and measured after 60 mins by […]
T9 sequence (Q9UBN7 whole entry): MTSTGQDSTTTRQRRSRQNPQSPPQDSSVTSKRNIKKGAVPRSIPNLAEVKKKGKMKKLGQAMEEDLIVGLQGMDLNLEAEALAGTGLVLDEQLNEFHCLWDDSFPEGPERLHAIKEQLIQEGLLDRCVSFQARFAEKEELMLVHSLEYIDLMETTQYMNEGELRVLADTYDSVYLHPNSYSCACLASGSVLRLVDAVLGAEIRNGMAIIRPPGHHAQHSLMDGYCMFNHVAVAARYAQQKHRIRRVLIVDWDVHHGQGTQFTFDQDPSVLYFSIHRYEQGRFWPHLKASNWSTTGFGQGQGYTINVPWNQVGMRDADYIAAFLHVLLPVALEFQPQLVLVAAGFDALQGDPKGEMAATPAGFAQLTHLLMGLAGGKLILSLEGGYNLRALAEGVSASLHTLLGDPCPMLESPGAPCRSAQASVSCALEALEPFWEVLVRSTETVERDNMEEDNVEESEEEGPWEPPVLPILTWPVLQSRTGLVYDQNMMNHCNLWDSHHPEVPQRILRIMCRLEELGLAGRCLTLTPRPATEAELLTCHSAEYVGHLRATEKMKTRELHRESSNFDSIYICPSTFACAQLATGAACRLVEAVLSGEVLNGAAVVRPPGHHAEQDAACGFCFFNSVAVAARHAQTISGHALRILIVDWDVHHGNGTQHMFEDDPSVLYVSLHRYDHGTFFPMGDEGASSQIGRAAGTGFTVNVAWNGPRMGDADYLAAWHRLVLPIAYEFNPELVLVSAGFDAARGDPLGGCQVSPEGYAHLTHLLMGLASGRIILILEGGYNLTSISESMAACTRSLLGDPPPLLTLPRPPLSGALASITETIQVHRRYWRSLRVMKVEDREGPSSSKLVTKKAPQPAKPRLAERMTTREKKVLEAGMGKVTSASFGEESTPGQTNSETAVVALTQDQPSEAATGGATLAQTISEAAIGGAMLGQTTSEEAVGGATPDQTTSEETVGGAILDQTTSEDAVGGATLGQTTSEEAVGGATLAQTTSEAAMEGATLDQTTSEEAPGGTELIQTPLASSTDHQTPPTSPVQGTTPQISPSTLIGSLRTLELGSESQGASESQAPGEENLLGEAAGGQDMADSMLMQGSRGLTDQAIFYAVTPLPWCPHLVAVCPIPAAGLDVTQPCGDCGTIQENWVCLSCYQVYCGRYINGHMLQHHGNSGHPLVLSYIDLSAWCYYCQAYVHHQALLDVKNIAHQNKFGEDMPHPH

Histone deacetylase 3 [18] = target: T8, Histone deacetylase 3; assay: Inhibition of human HDAC3 using Boc-Lys(Ac)-AMC as substrate preincubated for 30 mins followed by substrate addition and measured after 60 mins by […] assay
Histone deacetylase 4 [19] = target: T3, Histone deacetylase 4; assay: Inhibition of human HDAC4 using Boc-Lys(tri-fluoracetyl)-AMC as substrate preincubated for 30 mins followed by substrate addition and measured after 60 mins by […] assay
Histone deacetylase 1 [20] = target: T6, Histone deacetylase 1; assay: Inhibition of human HDAC1 using Boc-Lys(Ac)-AMC as substrate preincubated for 30 mins followed by substrate addition and measured after 60 mins by […] assay
Histone deacetylase 11 = target: T10, Histone deacetylase 11 (Homo sapiens, UniProt Q96DB2); assay: Inhibition of human C-terminal Flag-tagged HDAC11 expressed in sf9 cells using Boc-Lys(Ac)-AMC as substrate preincubated for 10 mins followed by substrate addition by fluorometry
T10 sequence (Q96DB2 whole entry): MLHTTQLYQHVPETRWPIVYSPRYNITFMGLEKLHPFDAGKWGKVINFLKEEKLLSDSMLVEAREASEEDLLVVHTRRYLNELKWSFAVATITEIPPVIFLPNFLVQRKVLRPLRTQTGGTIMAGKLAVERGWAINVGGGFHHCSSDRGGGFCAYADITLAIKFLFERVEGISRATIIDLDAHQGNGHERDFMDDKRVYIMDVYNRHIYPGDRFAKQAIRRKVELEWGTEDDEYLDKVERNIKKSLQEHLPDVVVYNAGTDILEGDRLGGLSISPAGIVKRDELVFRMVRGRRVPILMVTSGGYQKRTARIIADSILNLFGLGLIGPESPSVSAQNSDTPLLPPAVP

Structure (SMILES): CCCCNNC(=O)c1ccc(Br)cc1
IC50 [1]: 15000 nM
IC50 (Histone deacetylase 8): 2000 nM

Structure (SMILES): CCN(CC)Cc1ccc2cc(COC(=O)Nc3ccc(C(=O)NO)cc3)ccc2c1 [GIVINOSTAT]
IC50 [2]: 331 nM
IC50 (Histone deacetylase 4 [3]): > 1000 nM
IC50 (Histone deacetylase 9 [4]): 512 nM
IC50 (Histone deacetylase 5 [5]): 532 nM

Structure (SMILES): COc1cccc2c1c(O)c(C(=O)N(C)c1ccc(C(F)(F)F)cc1)c(=O)n2C [TASQUINIMOD]
Kd (Histone deacetylase 4 [10]): 10 nM

Structure (SMILES): N=C1Sc2ccccc2C2=NCCCN12
IC50 [17]: 7000 nM
IC50 (Histone deacetylase 3 [18]): > 50000 nM
IC50 (Histone deacetylase 4 [19]): 9000 nM
IC50 (Histone deacetylase 1 [20]): 4000 nM

Structure (SMILES): Nc1ccccc1NC(=O)c1ccc(CNc2nccc(-c3cccnc3)n2)cc1 [MOCETINOSTAT]
IC50 (Histone deacetylase 11): 600 nM

The remaining lines, values ahead:

IC50 [6]: 17000 nM
Structure (SMILES): Cc1ncsc1-c1ccc(CNC(=O)[C@@H]2C[C@@H](O)CN2C(=O)[C@@H](NC(=O)CCCCCCCCCCC(=O)Nc2ccc(C(=O)Nc3cc(-c4ccccc4)ccc3N)cc2)C(C)(C)C)cc1

IC50 [7]: 0.5 nM
IC50 (Histone deacetylase 5 [8]): 4 nM
IC50 (Histone deacetylase 9 [9]): 32 nM
Structure (SMILES): Cn1cc(CNCC2CCN(c3ncc(C(=O)NO)cn3)CC2)c2ccccc21 [QUISINOSTAT]

IC50 (Histone deacetylase 5 [8]): 48 nM
IC50 (Histone deacetylase 9 [9]): 168 nM
Structure (SMILES): CN(C)Cc1c(C(=O)NCCOc2ccc(C(=O)NO)cc2)oc2ccccc12 [ABEXINOSTAT]

Ki (Histone deacetylase 1 [11]): 690 nM
Ki (Histone deacetylase 2 [12]): 370 nM
Ki [13]: 800 nM
Structure (SMILES): C/C=C1\NC(=O)[C@@H](C)NC(=O)[C@@H](C(C)C)NC(=O)C[C@@H](CCC)OC(=O)[C@H](C(C)C)NC1=O

IC50 (Histone deacetylase 1 [14]): 100 nM
IC50 (Histone deacetylase 3 [15]): 600 nM
IC50 (Histone deacetylase 2 [16]): 600 nM
Structure (SMILES): Cc1cn(C)nc1CN1CCC(c2ccc(C(=O)Nc3ccccc3N)cc2)CC1
